Measurements reported in PubChem BioAssay (NCI).
Where “and” joins values, the source holds several entries; their conditions need not be identical. Equal entries are not always repeated.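 Assay format: 96-well plates, 48-hour exposure. GI50 = concentration required for 50% inhibition of growth. TGI marks complete inhibition of growth.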

Experiments:
Assay in all cases: inhibition of tumour cell growth, NCI panel, 48 h
NCI-H23 lung = system: NCI-H23 lung
OVCAR-4 ovarian = system: OVCAR-4 ovarian
NCI-H522 lung = system: NCI-H522 lung
A549 NSCLC = system: A549 NSCLC
SN12C renal = system: SN12C renal
SW-620 colon = system: SW-620 colon
CCRF-CEM leukemia = system: CCRF-CEM leukemia
RPMI-8226 leukemia = system: RPMI-8226 leukemia
HL-60(TB) leukemia = system: HL-60(TB) leukemia
U251 CNS = system: U251 CNS

Compound: C[C@]12CC[C@H](O)C[C@H]1CC[C@@H]1[C@@H]2CC[C@]2(C)[C@@H](C3=CC(=O)OC3)[C@@H](O)C[C@]12O
- TGI (NCI-H23 lung): 2.47 µM
- TGI (OVCAR-4 ovarian): 3.16 µM
- TGI (NCI-H522 lung): 2.67 µM
- TGI (A549 NSCLC): 1.65 µM
- TGI (SN12C renal): 3.25 µM
- TGI (SW-620 colon): 14.6 µM
- TGI (CCRF-CEM leukemia): 2.42 µM
- TGI (RPMI-8226 leukemia): 8.07 µM
- TGI (HL-60(TB) leukemia): 3.45 µM
- TGI (U251 CNS): 5.08 µM

Compound: O=C1NC(=O)C(=C/C=C/c2ccccc2)C(=O)N1
- GI50 (NCI-H23 lung): 2160 nM
- TGI (NCI-H23 lung): 5.29 µM
- GI50 (OVCAR-4 ovarian): 5370 nM
- TGI (OVCAR-4 ovarian): 17.2 µM
- GI50 (NCI-H522 lung): 2360 nM
- TGI (NCI-H522 lung): 7.15 µM
- GI50 (A549 NSCLC): 7060 nM
- TGI (A549 NSCLC): 28 µM
- GI50 (SN12C renal): 3270 nM
- TGI (SN12C renal): 19.5 µM
- GI50 (SW-620 colon): 1790 nM
- TGI (SW-620 colon): 4.22 µM
- GI50 (CCRF-CEM leukemia): 3570 nM
- TGI (CCRF-CEM leukemia): > 100 µM
- GI50 (RPMI-8226 leukemia): 3590 nM
- TGI (RPMI-8226 leukemia): 10.2 µM
- GI50 (HL-60(TB) leukemia): 2910 nM
- TGI (HL-60(TB) leukemia): 8.08 µM
- GI50 (U251 CNS): 2500 nM
- TGI (U251 CNS): 10.3 µM

Compound: CCCCCCCCCCCCCC1=NCCN1CCO
- GI50 (NCI-H23 lung): 8610 nM
- TGI (NCI-H23 lung): 31.7 µM
- GI50 (OVCAR-4 ovarian): 7230 nM
- TGI (OVCAR-4 ovarian): 39.8 µM
- GI50 (NCI-H522 lung): 2520 nM
- TGI (NCI-H522 lung): 6.13 µM
- GI50 (A549 NSCLC): 3520 nM
- TGI (A549 NSCLC): > 100 µM
- GI50 (SN12C renal): 2570 nM
- TGI (SN12C renal): 6.47 µM
- GI50 (SW-620 colon): 2250 nM
- TGI (SW-620 colon): 5.22 µM
- GI50 (CCRF-CEM leukemia): 10500 nM
- TGI (CCRF-CEM leukemia): > 100 µM
- GI50 (RPMI-8226 leukemia): 6500 nM
- TGI (RPMI-8226 leukemia): > 81.5 µM
- GI50 (HL-60(TB) leukemia): 3110 nM
- TGI (HL-60(TB) leukemia): > 100 µM
- GI50 (U251 CNS): 2100 nM
- TGI (U251 CNS): 4.95 µM

Compound: c1cc2[nH]ncc2cc1-c1nc2ccc3[nH]ncc3c2c2c1CCCC2
- GI50 (NCI-H23 lung): 1830 nM
- TGI (NCI-H23 lung): 7.44 µM
- GI50 (OVCAR-4 ovarian): 1970 nM
- TGI (OVCAR-4 ovarian): 14.4 µM
- GI50 (NCI-H522 lung): 424 nM
- TGI (NCI-H522 lung): 3.16 µM
- GI50 (A549 NSCLC): 1780 nM
- TGI (A549 NSCLC): > 31.4 µM
- GI50 (SN12C renal): 2530 nM
- TGI (SN12C renal): 13.4 µM
- GI50 (SW-620 colon): 441 nM
- TGI (SW-620 colon): 11.2 µM
- GI50 (CCRF-CEM leukemia): 836 nM
- TGI (CCRF-CEM leukemia): > 25.3 µM
- GI50 (RPMI-8226 leukemia): 799 nM
- TGI (RPMI-8226 leukemia): 4.9 µM
- GI50 (HL-60(TB) leukemia): 512 nM
- TGI (HL-60(TB) leukemia): 3.09 µM
- GI50 (U251 CNS): 2660 nM
- TGI (U251 CNS): 15.5 µM

Compound: CCOC(=O)n1cc(C2=C(c3cn(C)c4ccccc34)COC2=O)c2ccccc21
- GI50 (NCI-H23 lung): 436 nM
- TGI (NCI-H23 lung): 35.5 µM
- GI50 (OVCAR-4 ovarian): 69.2 nM
- TGI (OVCAR-4 ovarian): > 100 µM
- GI50 (NCI-H522 lung): 27.8 nM
- TGI (NCI-H522 lung): 1.02 µM
- GI50 (A549 NSCLC): 166 nM
- TGI (A549 NSCLC): > 100 µM
- GI50 (SN12C renal): 306 nM
- TGI (SN12C renal): > 100 µM
- GI50 (SW-620 colon): 72.4 nM
- TGI (SW-620 colon): > 100 µM
- GI50 (CCRF-CEM leukemia): 218 nM
- TGI (CCRF-CEM leukemia): > 100 µM
- GI50 (RPMI-8226 leukemia): 143 nM
- GI50 (HL-60(TB) leukemia): 124 nM
- TGI (HL-60(TB) leukemia): 0.511 µM
- GI50 (U251 CNS): 274 nM
- TGI (U251 CNS): 22.1 µM

Compound: Cc1ccccc1-n1ncc(C(=O)c2ccccc2)c1N
- GI50 (NCI-H23 lung): > 25000 nM
- TGI (NCI-H23 lung): > 25 µM
- GI50 (OVCAR-4 ovarian): > 25000 nM
- TGI (OVCAR-4 ovarian): > 25 µM
- GI50 (NCI-H522 lung): > 25000 nM
- TGI (NCI-H522 lung): > 25 µM
- GI50 (A549 NSCLC): > 25000 nM
- TGI (A549 NSCLC): > 25 µM
- GI50 (SN12C renal): > 25000 nM
- TGI (SN12C renal): > 25 µM
- GI50 (SW-620 colon): > 25000 nM
- TGI (SW-620 colon): > 25 µM
- GI50 (CCRF-CEM leukemia): > 25000 nM
- TGI (CCRF-CEM leukemia): > 25 µM
- GI50 (RPMI-8226 leukemia): > 25000 nM
- TGI (RPMI-8226 leukemia): > 25 µM
- GI50 (HL-60(TB) leukemia): > 25000 nM
- TGI (HL-60(TB) leukemia): > 25 µM
- GI50 (U251 CNS): > 25000 nM
- TGI (U251 CNS): > 25 µM

Compound: C=CC(=O)NCc1cccc(Nc2ncc(Br)c(NCCCNC(=O)C3CCC3)n2)c1
- GI50 (NCI-H23 lung): 1500 nM and 1190 nM
- TGI (NCI-H23 lung): 8.7 µM and 7.85 µM
- GI50 (OVCAR-4 ovarian): 1670 nM and 1200 nM
- TGI (OVCAR-4 ovarian): 6.07 µM and 12.8 µM
- TGI (NCI-H522 lung): 12.2 µM and 5.52 µM
- GI50 (A549 NSCLC): 1490 nM and 901 nM
- TGI (A549 NSCLC): 12.5 µM and 11.6 µM
- GI50 (SN12C renal): 621 nM and 450 nM
- TGI (SN12C renal): 12.5 µM and > 25 µM
- GI50 (SW-620 colon): 661 nM and 1150 nM
- TGI (SW-620 colon): 12.5 µM and 11.7 µM
- GI50 (CCRF-CEM leukemia): 707 nM and 454 nM
- TGI (CCRF-CEM leukemia): 12.5 µM and > 25 µM
- GI50 (RPMI-8226 leukemia): 1920 nM and 1880 nM
- TGI (RPMI-8226 leukemia): 8.19 µM and > 25 µM
- GI50 (HL-60(TB) leukemia): 821 nM and 893 nM
- TGI (HL-60(TB) leukemia): 5.96 µM and > 25 µM
- GI50 (U251 CNS): 665 nM and 591 nM
- TGI (U251 CNS): 12.5 µM and 5.94 µM
